Assay results from patent US20080255217A1, “PREVENTIVE OR THERAPEUTIC AGENT FOR CARDIAC DYSFUNCTION OR MYOCARDIAL INJURY CAUSED BY ISCHEMIA OR ISCHEMIA REPERFUSION” (SANWA KAGAKU KENKYUSHO CO., LTD., priority 2005, published 2008).

Assays:
[1] = tested on: hearts of wild-type mice (BDF-1); assay: Isolated heart (Langendorff) ischemia-reperfusion, wild-type mice; parameters: species or system mouse; settings: for deterioration of the cardiac performance and destruction of cardiac muscle due to an ischemia reperfusion injury in a heart: discussion summary of wild-type and hAR-TG results; for increase of left ventricular end-diastolic pressure (LVEDP) after ischemia reperfusion: 1 μM in perfusion solution, FIG. 2; for release of CK from cardiomyocytes: 60-min reperfusion, FIG. 4
Experimental: (§1) In an experimental test, hearts of 7 to 9 week-old wild-type mice (BDF-1) and hAR-TG were used. From these mice, hearts were isolated under anesthesia of pentobarbital 50 mg/kg i.p., and were placed in ice-cold saline. The isolated hearts were perfused for 20 minutes at a perfusion pressure of 70 mmHg with the Langendorff apparatus (Model IH-1 Type 844, HUGO SACHS ELEKTRONIK, Germany), and was stabilized. Thereafter, after perfusion for 30 minutes under heart function measurement, perfusion solution was completely stopped for 30 minutes, and reperfusion was performed for further 60 minutes, thereby, ischemia-ischemia reperfusion loading was performed. As perfusion solution, Krebs-Henseleit (KH) buffer containing 5.55 mM glucose and 2 mM Na-pyruvate was used. Cardiac performance was assessed by a left ventricular end-diastolic pressure (LVEDP) and peak first derivative of left ventricular systolic pressure (+dP/dt max). These were measured with a pressure transducer connected with a balloon inserted into a left ventricle in condition of hearts paced at 3 volt, 420 beats/min with an electrode placed on the top of a right ventricle, and data thereof were calculated with a four cannel recording device (OMUNIACE RT-3300, NEC, Japan). An AR inhibitor was added to the perfusion solution for 10 minutes from 15 minutes before global ischemia initiation as shown in FIG. 1. Each inhibitor (1 μM SNK-860: SNK, 1-10 μM zopolrestat: ZOP, 10 μM epalrestat: EPA) was dissolved in DMSO, and a DMSO final concentration in a perfusion solution was adjusted to 0.05%. DMSO of the same concentration was also added to a perfusion solution of a control experiment. Cardiomyocytes injury was determined using as an index the release of total creatinine kinase (CK) for 60-min reperfusion, and a myocardial ATP content after 60 minutes reperfusion was determined by the bioluminescence method (Sigma-Aldrich, St. Louis, Mo.) using luciferase, respectively.

[2] = tested on: hearts of human aldose reductase (AR) transgenic mice (hAR-TG); assay: Isolated heart (Langendorff) ischemia-reperfusion, hAR-TG mice; parameters: species or system mouse; settings: for increase in LVEDP: FIG. 5; for reduction in +dP/dt max: FIG. 6; for release of CK into a perfusion solution: FIG. 7; for decrease in a myocardial ATP content: after 60 minutes reperfusion, FIG. 8
Source text: In the present invention, not only wild-type mice, but also human aldose reductase (AR) transgenic mice (hAR-TG) which was produced so as to overexpress human-type AR genetically in a mouse, were used for predicting effectiveness in humans which is significant for the development of such a therapeutic agent. As a control for comparison with SNK-860, epalrestat and zopolrestat were used.
as §1
For hAR-TG mice, littermates (LM: hAR non-expression litter mouse) were used as control mice without drug treatment.

aldose reductase = aldose reductase (Homo sapiens, UniProt P15121); assay: Aldose reductase inhibitory activity; type: biochemical; settings: background statement
[3] = tested on: diabetic cardiomyopathy patients; settings: Johnson B F: Diabetes Care 27,448, 2004; cited from earlier work
[4] = drug development ceased; cited from earlier work
[5] = wild-type mice, isolated heart, 1 μM

Row | increase in LVEDP ([2]; 1 μM) | reduction in +dP/dt max ([2]; 1 μM) | increase in LVEDP ([2]; 10 μM) | reduction in +dP/dt max ([2]; 10 μM) | release of CK into a perfusion solution ([2]; 10 μM) | decrease in a myocardial ATP content ([2]; 10 μM) | SMILES | deterioration of the cardiac performance and destruction of cardiac muscle due to an ischemia reperfusion injury in a heart ([1]; lower concentration, non-diabetic state) | increase of left ventricular end-diastolic pressure (LVEDP) after ischemia reperfusion ([1]; wild-type mice, isolated heart) | reduction in peak first derivative of left ventricular systolic pressure (+dP/dt max) immediately after reperfusion ([1]; wild-type mice, isolated heart, 1 μM, FIG. 3) | release of CK from cardiomyocytes [1, 5] | release of CK into a perfusion solution ([2]; 1 μM) | decrease in a myocardial ATP content ([2]; 1 μM) | aldose reductase inhibitory activity (aldose reductase) | deterioration of the cardiac performance and destruction of cardiac muscle due to an ischemia reperfusion injury in a heart ([1]; high concentration) | cardiac performance of diabetic cardiomyopathy patients [3] | manifestation of side effects [4]
1 | significant improvement | significant improvement | – | – | – | – | NC(=O)[C@@H]1C[C@]2(NC(=O)NC2=O)c2cc(F)ccc2O1 [SNK-860, (2S,4S)-6-fluoro-2′,5′-dioxospiro[chroman-4,4′-imidazolidine]-2-carboxamide] | completely inhibited | significantly improved | the most remarkable effect | significant reduction | equivalent improvement effect to that of the 10 μM epalrestat-addition group | equivalent improvement effect to that of the 10 μM epalrestat-addition group | strong aldose reductase inhibitory activity | – | – | –
2 | – | – | significant improvement | significant improvement | significant improvement was not observed | significant improvement was not observed | O=C(O)Cc1nn(Cc2nc3cc(C(F)(F)F)ccc3s2)c(=O)c2ccccc12 [zopolrestat] | – | significantly improved | – | no effect | – | – | – | only the partial effect | improves the cardiac performance | hepatic disorders
